# System: MEF/GFP-Stat3α cells
# Assay: HTFM cytoplasmic-to-nuclear translocation of GFP-Stat3α
# Format: cell-based, murine
# Settings: for IC50: Mus musculus, 0.5 h, MEF/GFP-Stat3α, IL-6 200 ng/ml and IL-6sR 250 ng/ml 30 min, read-out: HTM IC50 (ligand-mediated nuclear translocation of GFP-Stat3α)
# Experimental: Coverslips were examined by confocal fluorescent microscopy using filters to detect GFP (column one), DAPI (column two) or both (merge; column three). In panel B, MEF-GFP-Stat3 cells were grown in 96-well plates with optical glass bottoms and pretreated with the indicated compound at the indicated concentrations in quadruplicate for 1 hour then stimulated with IL-6 (200 ng/ml) and IL-6sR (250 ng/ml) for 30 minutes. Cells were fixed and the plates were examined by high-throughput microscopy to determine the fluorescence intensity in the nucleus (FLIN) and the % ΔFLINMax was calculated as described in Example 1. Data shown are mean±SD and are representative of 2 or more studies. Best-fit curves were generated based on 4 Parameter Logistic Model/Dose Response One Site/XLfit 4.2, IDBS and were used to calculate IC50 (Table 1).
# Confocal and high-throughput fluorescence microscopy. Confocal and highthroughput fluorescence microscopy (HTFM) of MEF/GFP-Stat3α cells were performed as described (Huang et al., 2007). Briefly, for confocal fluorescence microscopy, cells were grown in 6-well plates containing a cover slip. For HTFM, cells were seeded into 96-well CC3 plates at a density of 5,000 cells/well using an automated plating system. Cells were cultured under standard conditions until 85-90% confluent. Cells were pretreated with compound for 1 hour at 37° C. then stimulated with IL-6 (200 ng/ml) and IL-6sR (250 ng/ml) for 30 minutes. Cells were fixed with 4% formaldehyde in PEM Buffer (80 mM Potassium PIPES, pH 6.8, 5 mM EGTA pH 7.0, 2 mM MgCl2) for 30 minutes at 4° C., quenched in 1 mg/ml of NaBH4 (Sigma) in PEM buffer and counterstained for 1 min in 4,6-diamidino-2-phenylindole (DAPI; Sigma; 1 mg/ml) in PEM buffer. Cover slips were examined by confocal fluorescent microscopy. Plates were analyzed by automated HTFM using the Cell Lab IC Image Cytometer (IC100) platform and CytoshopVersion 2.1 analysis software (Beckman Coulter). Nuclear translocation is quantified by using the fraction localized in the nucleus (FLIN) measurement (Sharp et al., 2006).
# Following its phosphorylation on Y705, Stat3 undergoes a change in conformation from head-to-head dimerization mediated through its N-terminal oligomerization domain to tail-to-tail dimerization mediated by reciprocal SH2/pY705-peptide ligand interactions. This conformational change is followed by nuclear accumulation. Compounds that targeted SH2/pY-peptide ligand interactions of Stat3 would be expected to inhibit nuclear accumulation of Stat3. […]
# EXP IIB. High throughput fluorescence microscopy (HTFM), cytoplasm-to-nucleus translocation inhibition assays. […] Plates are analyzed by automated HTFM using the Cell Lab IC Image Cytometer (IC100) platform and CytoshopVersion 2.1 analysis software (Beckman Coulter). […]
compound,measurement,setting,value
"O=C(O)c1ccc(C=CC(=O)c2ccc3c(c2)OCCO3)cc1 [Cpd3, 4-[3-(2,3-dihydro-1,4-benzodioxin-6-yl)-3-oxo-1-propen-1-yl]benzoic acid]",IC50,,131 µM
"CCOc1cc(C=C2C(=O)c3ccccc3C2=O)cc(Cl)c1OCc1cccc(C(=O)O)c1 [Cpd3-2, 3-({2-chloro-4-[(1,3-dioxo-1,3-dihydro-2H-inden-2-ylidene)methyl]-6-ethoxyphenoxy}methyl)benzoic acid]",IC50,,150 µM
"CCN1C(=O)C(=Cc2ccc(-c3cc(C(=O)O)ccc3Cl)o2)C(=O)N(CC)C1=S [Cpd30-12, 4-chloro-3-{5-[(1,3-diethyl-4,6-dioxo-2-thioxotetrahydro-5(2H)-pyrimidinylidene)methyl]-2-furyl}benzoic acid]",blocked ligand-mediated nuclear translocation of GFP-Stat3,MEF/GFP-Stat3α cells,not
same,IC50,,> 300 µM
